# In the NIST ThermoML archive (doi:10.1016/j.fluid.2015.01.026):
# Numbers after ± are expanded uncertainties.
# Conditions: 298.15 K; 101.33 kPa; Liquid; Vibrating tube method
row,SMILES,mass density
1,CCCCCCCCCC [decane],726.347 ± 0.24 kg/m3
2,CCCCCCCCCCCC [dodecane],741.523 ± 0.58 kg/m3
3,CCCCCCCCCCCCCC [tetradecane],759.275 ± 0.24 kg/m3

# Next, values leading:
row,mass density,SMILES
1,1023.05 ± 0.25 kg/m3,CC(=O)c1ccccc1 [acetophenone]
2,770.221 ± 0.24 kg/m3,CCCCCCCCCCCCCCCC [hexadecane]
